From paper PMC6216040, “Repurposing of an old drug: In vitro and in vivo efficacies of buparvaquone against Echinococcus multilocularis” (International Journal for Parasitology: Drugs and Drug …, 2018)
Read-outs that look alike come from different tables or passages of the source.

System: E. multilocularis metacestodes
Test: PGI-assay: drug-induced damage on in vitro cultured metacestodes (Pathogen Box screening cascade and EC50)
Format: cell-based, Echinococcus multilocularis
Conditions: for PGI release, % of Tx-100 control, average, 5d / PGI release, % of Tx-100 control, average, 12d: confirmatory screening at 10 µM in triplicates, values as % of Tx-100 control; for cytotoxicity at 10 µM: Echinococcus multilocularis
[1] = 10 µM, singlets, 5 days of incubation
[2] = 10 µM, singlets, 12 days of incubation
[3] = 120 h, 10 µM, singlets, 5 days of incubation, read-out: PGI release, % of the Tx-100 control, 5d
[4] = 288 h, 10 µM, singlets, 12 days of incubation, read-out: PGI release, % of the Tx-100 control, 12d

| Compound | PGI release, % of the Tx-100 control, 5d [1] [%] | PGI release, % of the Tx-100 control, 12d [2] [%] | also measured |
| --- | --- | --- | --- |
| CNc1nnc(Sc2cnn(-c3ccccc3)c(=O)c2Cl)s1 [MMV688763] | 6.98 | 14.69 | – |
| COc1ccc(-c2onc(C(F)(F)F)c2-c2ccc(Cl)cc2)c(O)c1 [MMV688766] | 7.61 | 28.52 | PGI release, % of Tx-100 control, average, 5d (5 days of incubation): 1.11%; PGI release, % of Tx-100 control, average, 12d (12 days of incubation): 0.26% |
| Cc1[nH]c2ccccc2c1C(c1cccs1)N1CCN(C)CC1 (stereo not shown) [MMV688768] | 19.18 | 27.24 | PGI release, % of Tx-100 control, average, 5d (5 days of incubation): 5.02%; PGI release, % of Tx-100 control, average, 12d (12 days of incubation): 7.48% |
| Cc1ccccc1C(=O)N1NC(=Nc2ccccc2)SC1(C)C [MMV688771] | -0.49 | -1.69 | – |
| O=C(Cn1ccnc1[N+](=O)[O-])NCc1ccccc1 [MMV688773, Benznidazole, reference compound] | – | – | cytotoxicity at 10 µM [3]: -0.2%; cytotoxicity at 10 µM [4]: 1.37% |
| CC[C@@H]([C@H](C)O)n1ncn(-c2ccc(N3CCN(c4ccc(OC[C@@H]5CO[C@@](Cn6cncn6)(c6ccc(F)cc6F)C5)cc4)CC3)cc2)c1=O [MMV688774, Posaconazole, reference compound] | – | – | cytotoxicity at 10 µM [3]: -0.69%; cytotoxicity at 10 µM [4]: -1.09% |
| Cc1cccnc1NC(=O)c1cccc(OCc2c(C)noc2C)c1 [MMV688793] | -3.90 | -0.61 | – |
| O=C(NCCc1ccn(-c2ccccc2)n1)C1CCCCC1 [MMV688795] | 0.14 | -0.21 | – |
| O=C(NCc1nnc2n1CCCCC2)c1ccc(-c2ccc(F)cc2)o1 [MMV688796] | -0.28 | -3.38 | – |
| CC1CCCCN1C(=O)NCCc1coc(-c2ccc(F)cc2)n1 (stereo not shown) [MMV688797] | -3.70 | -1.62 | – |
| CS(=O)(=O)c1ccccc1C(=O)N(Cc1ccccc1)c1ccccc1 [MMV688798] | 13.11 | 63.28 | PGI release, % of Tx-100 control, average, 5d (5 days of incubation): -0.92%; PGI release, % of Tx-100 control, average, 12d (12 days of incubation): -1.65% |
| COc1ccc2nccc(NC(=O)C3CCN(CCc4ccc(Cl)cc4)CC3)c2n1 [MMV688844] | -0.25 | -3.99 | – |
| O=C(N[C@H](Cc1ccccc1)C(=O)Nc1ccccc1N1CCOCC1)c1cccs1 [MMV688845] | 0.55 | 0.28 | – |
| Cc1ccccc1CN1CCC(O)(c2ccc(Cl)c(C(F)(F)F)c2)CC1 [MMV688846] | 6.92 | 5.57 | – |
| CC(C)(C)n1nc(Cc2ccc(F)c(Cl)c2)c2c(N)ncnc21 [MMV688852] | 6.41 | 7.25 | – |
| CCOc1ccc2cc(-c3nn(C(C)(C)C)c(N)c3C(N)=O)cnc2c1 [MMV688853] | -1.41 | -6.45 | – |
| CCOc1ccc2cc(-c3nn(CC4CCN(C)CC4)c4ncnc(N)c34)ccc2c1 [MMV688854] | -0.71 | 0.93 | – |
| CN1CCN(c2cc(-c3ccc(F)cc3)nc(-c3ccncc3)n2)CC1 [MMV688888] | -2.22 | 0.59 | – |
| Clc1ccc(CCNc2cc(-c3ccccc3)nc3ncnn23)cc1 [MMV688889] | -3.56 | -0.70 | – |
| COc1cc(Br)cc2cc(C(=O)Nc3cccc(C(F)(F)F)c3)c(=O)oc12 [MMV688891] | -4.56 | -1.74 | – |
| OC[C@H]1O[C@@H](n2c3ccc(Cl)cc3c3c(-c4cc5ccccc5o4)ncnc32)C(O)[C@H]1O (stereo partly shown) [MMV688921] | -1.03 | 0.48 | – |
| CCc1nn(C)c(C(=O)NCc2ccc(Oc3ccc(C)cc3)cc2)c1Cl [MMV688934, Tolfenpyrad] | – | – | cytotoxicity at 10 µM (120 h, read-out: PGI release, % of the Tx-100 control, 5d): -1.16%; cytotoxicity at 10 µM (288 h, read-out: PGI release, % of the Tx-100 control, 12d): 10.3% |
| O=C(c1ccco1)N(CCCn1ccnc1)c1nc2c(Cl)cccc2s1 [MMV688936] | -2.60 | 13.45 | – |
